Assay results reported in the NIST ThermoML archive (doi:10.1007/s10765-006-0051-4).

Experiment: xn = mol fraction of the nth substance listed
Conditions: Gas, Oscillating disk viscometry

FC(F)C(F)(F)F [pentafluoroethane] + CCC
Conditions | viscosity [mPa·s]
298.15 K, 101.2 kPa, x1 = 0.7503 | 0.01219
298.15 K, 102 kPa, x1 = 0.5011 | 0.01122
298.15 K, 197.9 kPa, x1 = 0.7503 | 0.01223
298.15 K, 198.2 kPa, x1 = 0.5011 | 0.01121
298.15 K, 294.6 kPa, x1 = 0.7503 | 0.01221
298.15 K, 302.6 kPa, x1 = 0.5011 | 0.01121
298.15 K, 391.5 kPa, x1 = 0.7503 | 0.01222
298.15 K, 396.1 kPa, x1 = 0.5011 | 0.01123
298.15 K, 492.3 kPa, x1 = 0.7503 | 0.01223
298.15 K, 499.4 kPa, x1 = 0.5011 | 0.01123
298.15 K, 589.1 kPa, x1 = 0.7503 | 0.01225
298.15 K, 591.1 kPa, x1 = 0.5011 | 0.01124
298.15 K, 687.4 kPa, x1 = 0.5011 | 0.01125
298.15 K, 689 kPa, x1 = 0.7503 | 0.01229
298.15 K, 789 kPa, x1 = 0.5011 | 0.01128
298.15 K, 803.5 kPa, x1 = 0.7503 | 0.01229
298.15 K, 913.4 kPa, x1 = 0.7503 | 0.01235
298.15 K, 928.2 kPa, x1 = 0.5011 | 0.01131
298.15 K, 1012.4 kPa, x1 = 0.7503 | 0.01248
298.15 K, 1025.1 kPa, x1 = 0.5011 | 0.01138
298.15 K, 1231.3 kPa, x1 = 0.7503 | 0.01257
323.15 K, 101.8 kPa, x1 = 0.5011 | 0.01214
323.15 K, 102.2 kPa, x1 = 0.7503 | 0.01319
323.15 K, 199 kPa, x1 = 0.7503 | 0.01317
323.15 K, 213.9 kPa, x1 = 0.5011 | 0.01213
323.15 K, 294.9 kPa, x1 = 0.7503 | 0.0132
323.15 K, 391.1 kPa, x1 = 0.7503 | 0.01321
323.15 K, 395.8 kPa, x1 = 0.5011 | 0.01215
323.15 K, 519.4 kPa, x1 = 0.7503 | 0.01322
323.15 K, 592.8 kPa, x1 = 0.5011 | 0.01219
323.15 K, 636.3 kPa, x1 = 0.7503 | 0.01325
323.15 K, 766.4 kPa, x1 = 0.7503 | 0.01326
323.15 K, 788.9 kPa, x1 = 0.5011 | 0.01225
323.15 K, 883.2 kPa, x1 = 0.7503 | 0.01334
323.15 K, 983.8 kPa, x1 = 0.5011 | 0.01228
323.15 K, 1005.1 kPa, x1 = 0.7503 | 0.01339
323.15 K, 1125.1 kPa, x1 = 0.7503 | 0.01346
323.15 K, 1181.8 kPa, x1 = 0.5011 | 0.01241
323.15 K, 1249.7 kPa, x1 = 0.7503 | 0.01351
323.15 K, 1371.2 kPa, x1 = 0.7503 | 0.01361
323.15 K, 1374.9 kPa, x1 = 0.5011 | 0.01255
323.15 K, 1486.3 kPa, x1 = 0.7503 | 0.01367
323.15 K, 1618.9 kPa, x1 = 0.7503 | 0.01379
323.15 K, 1667.7 kPa, x1 = 0.5011 | 0.01272
323.15 K, 1736.1 kPa, x1 = 0.7503 | 0.01387
323.15 K, 1862.6 kPa, x1 = 0.5011 | 0.01289
323.15 K, 1864.4 kPa, x1 = 0.7503 | 0.01404
323.15 K, 1985.7 kPa, x1 = 0.5011 | 0.013
323.15 K, 1992.1 kPa, x1 = 0.7503 | 0.0142
323.15 K, 2071.4 kPa, x1 = 0.5011 | 0.01314
323.15 K, 2101.6 kPa, x1 = 0.7503 | 0.01435
323.15 K, 2211.6 kPa, x1 = 0.7503 | 0.01452
323.15 K, 2349.2 kPa, x1 = 0.7503 | 0.01482
348.15 K, 101.1 kPa, x1 = 0.5011 | 0.01295
348.15 K, 101.4 kPa, x1 = 0.7503 | 0.01409
348.15 K, 198.4 kPa, x1 = 0.5011 | 0.01299
348.15 K, 199.7 kPa, x1 = 0.7503 | 0.01407
348.15 K, 305.5 kPa, x1 = 0.5011 | 0.01297
348.15 K, 388.2 kPa, x1 = 0.7503 | 0.01416
348.15 K, 401.6 kPa, x1 = 0.5011 | 0.01296
348.15 K, 588.6 kPa, x1 = 0.7503 | 0.01424
